The text below walks through data of US20070140959A1, “Method of preparing rhenium-tricarbonyl complex and its precursor” (priority 2005, published 2007).

Data set [1] is described as follows: Stability of 188Re(I)-tricarbonyl precursor over time (HPLC). The format is physicochemical. The note with it: for 3 hours, then began to decay. The protocol: The HPLC measurement was conducted in order to separate the ^188Re (I)-tricarbonyl precursor synthesized in Embodiment 1.
The HPLC measurement was carried out with a WATERS system provided with a radiometric detector using methanol (hereinafter, referred to as ‘solvent A’) and 0.05 M triethylammoniumphosphate buffer (TEAP, pH 2.25, hereinafter referred to as ‘solvent B’) using two pumps each equipped with a reverse phase Xterra™ RP18 5 μm column (4.6×250 mm, Waters, Ireland).
The solvent conditions for HPLC were as follows: in the range of 0 to 5 minutes, 100% solvent A began to flow and was then converted into 100% solvent B; in the range of 5 to 8 minutes, 100% solvent B began to flow and was then converted into 25% solvent A and 75% solvent B; in the range of 8 to 11 minutes, 25% solvent A and 75% solvent B were converted into 34% solvent A and 66% solvent B; in the range of 11 to 22 minutes, 34% solvent A and 66% solvent B were converted into 100% solvent A; and in the range of 22 to 24 minutes, 100% solvent A was converted into 100% solvent B. The flow rate of solvent was maintained at 1 ml/min for the entire time. In addition, in order to rapidly bring the column to a state of equilibrium, during the next 5 min, the solvent was supplied at 2 ml/min for 2 minnutes and then at the former solvent flow rate for 3 min. […]

Data set [2] is classed as in vitro ADME, human. Here is the method:
The ^188Re-tricarbonyl histidine complex prepared in Embodiment 2 was dissolved in physiological saline to prepare 37 MBq/ml of a test solution. Of this solution, 25 μl of the solution was added to 475 μl of human plasma (sigma) and then cultured at 37° C. for 24 hours. After the lapse of 0.5, 1, 2, 4 and 24 hours, the fraction of solution was subjected to TLC measurement. As a development solvent, a solvent mixture comprising methanol and conc. hydrochloric acid mixed at a 99:1 ratio was used.
When the fraction of solution was developed, the labeled complex was shown in the developed portion, and the complex reacted with the plasma protein was shown in the zero point, which were confirmed through HPLC. The HPLC measurement was conducted in the same manner as in Experimental Example 2. In addition, the plasma protein binding was measured using an ITLC isotope scanner.

Turning to “^188Re-tricarbonyl precursor [^188Re (I)-tricarbonyl precursor]”, in data set [1], the “fraction of precursor stable” value is on record as not below 95%.
For the substance “^188Re (I)-tricarbonyl histidine complex [^188Re-tricarbonyl histidine complex]”, the “plasma stability (in words)” value in data set [2] is given as “high plasma stability”.
